Experiment [1] concerns human epidermal carcinoma A431 cell line. Description: SRB proliferation assay, A431 cells. It counts as cell-based. To be noted: A-431, SRB, 72 h, read-out: IC50 A431. In short, it runs like this: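 A431 cells in log phase are allowed to adhere for 24 h, then exposed to compound for 72 h in triplicate alongside DMSO controls. Cells are fixed with cold 10% TCA, stained with SRB, dye is solubilised in 10 mM Tris pH 10.5, and OD is read at 515 nm.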
(In general: The SRB assay estimates cell density from bound dye.)

Experiment [2] deals with human non-small cell lung cancer NCI-H1975 cell line. The experiment can be described thus: SRB proliferation assay, NCI-H1975 cells. It counts as cell-based. To be noted: NCI-H1975, SRB, 72 h, read-out: IC50 NCI-H1975. A digest of the protocol:
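NCI-H1975 cells in log phase were allowed to adhere for 24 h, then treated with compound in triplicate for 72 h. Cells were TCA-fixed and SRB-stained, with OD read at 515 nm; IC50 derived from growth inhibition versus DMSO control.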

Experiment [3] relates to human lung cancer NCI-H1975 nude mice subcutaneous xenografts. Description: NCI-H1975 nude mice subcutaneous xenograft. Type of experiment: in vivo. How it is done:
The tumor tissue in the growth stage was taken and cut into small pieces of about 1.5 mm^3, which were inoculated subcutaneously in nude mice under aseptic conditions. When the tumor was grown to about 100 mm^3, nude mice were random allocated. […] The mice were gavage administered once a day for 11 days, and the solvent control group (injection water containing 1% Tween 80) was set. During the whole experiment, the diameter of the transplanted tumor was measured twice a week with a vernier caliper and the weights of the mice were weighed. The volume of tumor was calculated as follows: TV=½×a×b^2 (Where a,b respectively represent long and wide)

Experiment [4] concerns phosphorylation of EGFR^wt in A431 cells. The experiment can be described thus: Western blot, EGFR phosphorylation in A431 cells. Type of experiment: cell-based, human. To be noted: FIG. 2. How it is done: The tests were performed using conventional Western Blot (immunoblotting test), as follows. A certain number of A431 cells and NCI-H1975 cells in the logarithmic growth phase were inoculated on 6-well plate and adherent cultured overnight in the incubator. Replaced with serum-free medium and starved for 24 h, a certain concentration of compound was added and reacted for 2 h. 50 ng/mL of EGF stimulating factor was added and reacted for 10 min. The cells were lysed with lysate and samples were collected, and then the samples were taken for SDS-PAGE electrophoresis. After electrophoresis, the protein was transferred to a nitrocellulose membrane by a semi-dry transfer system. The nitrocellulose membrane was placed in a blocking solution (5% skimmed milk diluted with TBS containing 0.1% Tween 20) for 2 h at room temperature, and then incubated overnight at 4° C. in a primary antibody solution (diluted with TBS containing 0.1% Tween 20 by 1:500). It was washed for three times with TBS containing 0.1% Tween 20 for 15 min each time. The membrane was placed in a secondary antibody solution (horseradish peroxidase labeled goat anti-rabbit IgG, diluted with TBS containing 0.1% Tween 20 by 1:2000) and reacted for 1 h at room temperature. After washed for three times as above, the membrane was dyed with ECL plus reagent and photoed using image Quant LAS 4000 camera.
For orientation: Immunoblotting shows a protein as a band on a membrane.

The target in another experiment is T1, EGFR^T790M/L858R (Homo sapiens, UniProt P00533, L858R/T790M).
T1 construct: purchased Millipore
T1 sequence (P00533 25-1210 T790M/L858R): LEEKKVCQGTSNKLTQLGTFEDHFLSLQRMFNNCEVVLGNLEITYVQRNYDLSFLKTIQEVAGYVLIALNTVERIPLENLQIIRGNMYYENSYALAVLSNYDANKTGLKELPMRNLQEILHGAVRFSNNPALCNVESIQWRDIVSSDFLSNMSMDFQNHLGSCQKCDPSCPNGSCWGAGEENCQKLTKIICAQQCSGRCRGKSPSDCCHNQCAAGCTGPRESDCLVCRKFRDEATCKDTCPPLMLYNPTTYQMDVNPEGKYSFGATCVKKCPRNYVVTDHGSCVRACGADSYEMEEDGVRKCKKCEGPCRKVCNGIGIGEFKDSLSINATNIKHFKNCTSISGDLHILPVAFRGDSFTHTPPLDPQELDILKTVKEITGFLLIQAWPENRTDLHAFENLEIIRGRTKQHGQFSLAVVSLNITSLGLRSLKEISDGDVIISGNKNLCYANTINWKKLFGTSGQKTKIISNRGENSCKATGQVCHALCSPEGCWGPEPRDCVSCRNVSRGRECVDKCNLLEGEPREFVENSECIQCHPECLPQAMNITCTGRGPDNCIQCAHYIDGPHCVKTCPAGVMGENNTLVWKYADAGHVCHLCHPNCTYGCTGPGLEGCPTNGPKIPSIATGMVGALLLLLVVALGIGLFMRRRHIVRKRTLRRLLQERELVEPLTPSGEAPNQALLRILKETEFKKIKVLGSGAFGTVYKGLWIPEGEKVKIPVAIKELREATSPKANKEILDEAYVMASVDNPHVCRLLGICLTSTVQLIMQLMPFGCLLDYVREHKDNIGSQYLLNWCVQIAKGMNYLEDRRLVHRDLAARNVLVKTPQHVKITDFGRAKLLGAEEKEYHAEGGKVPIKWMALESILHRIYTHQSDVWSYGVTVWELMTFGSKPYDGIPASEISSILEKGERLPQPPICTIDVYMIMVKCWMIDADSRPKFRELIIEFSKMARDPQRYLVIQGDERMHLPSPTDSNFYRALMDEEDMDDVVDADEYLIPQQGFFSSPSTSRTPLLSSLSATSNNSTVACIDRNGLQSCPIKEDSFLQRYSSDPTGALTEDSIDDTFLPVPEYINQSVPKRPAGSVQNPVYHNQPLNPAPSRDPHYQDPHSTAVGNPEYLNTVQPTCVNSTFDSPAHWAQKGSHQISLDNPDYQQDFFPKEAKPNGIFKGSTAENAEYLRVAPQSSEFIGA
Description: kinase inhibitory activity test (ELISA), EGFR^T790M/L858R. Type of experiment: biochemical. In short, it runs like this:
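ELISA on poly(Glu,Tyr)4:1-coated plates; kinase reaction with 5 μM ATP (final) in 50 mM HEPES pH 7.4, 50 mM MgCl2, 5 mM MnCl2, 0.2 mM Na3VO4, 1 mM DTT, 1 h at 37° C. Phosphotyrosine detected via PY99/HRP and OPD at 490 nm; IC50 by four-parameter fit.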

Structures are written as SMILES.

The term IC50 denotes the concentration needed to halve the response being measured. Consider `C=CC(=O)Nc1cc(Nc2ncc(Cl)c(Nc3ccc4ccccc4c3)n2)c(OC)cc1N(C)CCN(C)C` [CCB120067, N-((5-((5-chloro-4-((naphthalen-2-yl)amino))pyrimidin-2-yl)amino)-2-((N-methyl-N-dimethylaminoethyl)amino)-4-methoxyphenyl)acrylamide], for which the IC50 is 134 nM in experiment [1]; 1 to 56 nM in experiment [2]; 0.4 nM against EGFR^T790M/L858R (ELISA, ATP 5 μM, 1 hour at 37° C.). Further, in experiment [3] (10 mg/kg gavage once a day for 11 days, FIG. 3), the “inhibition of tumor growth” value is listed as “significantly inhibit”. The tumor regression result in experiment [3] (10 mg/kg gavage, after 7 days of administration) was “completely subsided”. The “inhibitory activity on tumor growth compared with positive control” value in experiment [3] (CCB120067 10 mg/kg versus CO1686 100 mg/kg) is “stronger than anti-tumor effect of CO1686 at 100 mg/kg dose”. In experiment [4], the “inhibitory activity on phosphorylation of EGFR^wt” value is “weaker”. The “kinase inhibitory activity (in words)” value on EGFR^T790M/L858R (summary of Table 1) is “potent”.

For the origin of these results see patent publication US10059694B2, “2-aminopyrimidine compound and pharmaceutical composition and use thereof” (Shanghai Institute of Materia Medica, Chinese Academy of …, priority 2014, dated 2018).
